Measurements from US20240251792A1, “WEED CONTROL METHOD” (SYNGENTA CROP PROTECTION AG, priority 2021, published 2024).
Where two headings read alike, the source gives them in different places.

How the values were obtained:
Format in all cases: in vivo
[1] = system: ABUTH; assay: Pre-emergence biological efficacy (Table 3); settings: Abutilon theophrasti, 312 h, after 13 days, read-out: evaluation (100=total damage to plant; 0=no damage to plant)
Description: (§1) Seeds of weeds and/or crops were sown in standard soil in pots. After cultivation for one day under controlled conditions in a glasshouse (at 24/19° C., day/night; 16 hours light), the plants were sprayed with an aqueous spray solution derived from the formulation of the technical active ingredient in a small amount of acetone and a special solvent and emulsifier mixture referred to as AMA (11.12% Emulsogen EL360 TM+44.44% N-methylpyrrolidone+44.44% Dowanol DPM glycol ether), to create a 50 g/l solution which was then diluted using 0.2% Genapol X080 as diluent to give the desired final dose of test compound.
(§2) The test plants were then grown under controlled conditions in the glasshouse (at 24/18° C., day/night; 15 hours light; 50% humidity) and watered twice daily. After 13 days the test was evaluated (100=total damage to plant; 0=no damage to plant).

[2] = system: AMARE; assay: Pre-emergence biological efficacy (Table 3); settings: Amaranthus retroflexus, 312 h, 1000 g/ha, after 13 days, read-out: evaluation (100=total damage to plant; 0=no damage to plant)
Description: as §1, §2

[3] = system: IPOHE; assay: Pre-emergence biological efficacy (Table 3); settings: Ipomoea hederacea, 312 h, 1000 g/ha, after 13 days, read-out: evaluation (100=total damage to plant; 0=no damage to plant)
Description: as §1, §2

[4] = system: STEME; assay: Pre-emergence biological efficacy (Table 3); settings: 312 h, after 13 days, read-out: evaluation (100=total damage to plant; 0=no damage to plant)
Description: as §1, §2

[5] = system: ZEAMX; assay: Pre-emergence biological efficacy (Table 3); settings: 312 h, 1000 g/ha, after 13 days, read-out: evaluation (100=total damage to plant; 0=no damage to plant)
Description: as §1, §2

[6] = system: weeds and/or crops; assay: Post-emergence biological efficacy (Table 4); settings: 312 h, 1000 g/ha, evaluated after 13 days
Description: as §1, with “14 days” for “one day”, “F50” for “AMA”
as §2

[7] = system: ECHCG; assay: Pre-emergence biological efficacy (Table 3); settings: Echinochloa crus-galli, 312 h, 1000 g/ha, after 13 days, read-out: evaluation (100=total damage to plant; 0=no damage to plant)
Description: as §1, §2

[8] = STEME, read-out: damage to plant STEME (100=total damage; 0=no damage)
[9] = ZEAMX, read-out: damage to plant ZEAMX (100=total damage; 0=no damage)
[10] = Abutilon theophrasti, ABUTH, read-out: damage to plant ABUTH (100=total damage; 0=no damage)
[11] = Amaranthus retroflexus, AMARE, read-out: damage to plant AMARE (100=total damage; 0=no damage)
[12] = Ipomoea hederacea, IPOHE, read-out: damage to plant IPOHE (100=total damage; 0=no damage)

SMILES | pest or weed control at 1000 g/ha [1] [%] | pest or weed control at 1000 g/ha [2] [%] | pest or weed control at 1000 g/ha [3] [%] | pest or weed control at 1000 g/ha [4] [%] | plant injury at 1000 g/ha [5] [%] | pest or weed control at 1000 g/ha [6, 8] [%] | pest or weed control at 1000 g/ha [6, 9] [%] | pest or weed control at 1000 g/ha [6, 10] [%] | pest or weed control at 1000 g/ha [6, 11] [%] | pest or weed control at 1000 g/ha [6, 12] [%] | pest or weed control at 1000 g/ha [7] [%] | pest or weed control at 1000 g/ha ([6]; Echinochloa crus-galli, ECHCG, read-out: damage to plant ECHCG (100=total damage; 0=no damage)) [%]
CCc1cccc(C(F)(F)C(=O)O)c1Cl [Compound 1-196, 2-(2-Chloro-3-ethyl-phenyl)-2,2-difluoro-acetic acid] | 70 | 40 | 70 | 80 | 20 | 90 | 10 | 80 | 50 | 70 |  | 
C=Cc1cccc(C(F)(F)C(=O)O)c1Cl [Compound 1-207, 2-(2-Chloro-3-vinyl-phenyl)-2,2-difluoro-acetic acid] | 90 | 80 | 90 | 90 | 30 | 90 | 30 | 80 | 70 | 80 |  | 
C#Cc1cccc(C(F)(F)C(=O)O)c1Cl [Compound 1-208, 2-(2-Chloro-3-ethynyl-phenyl)-2,2-difluoro-acetic acid] | 100 | 90 | 90 | 100 | 80 | 90 | 70 | 90 | 90 | 90 |  | 
O=C(O)C(F)(F)c1cc(Cl)c(Cl)cc1O [Compound 1-298, 2-(4,5-Dichloro-2-hydroxy-phenyl)-2,2-difluoro-acetic acid] | 0 | 0 | 0 | 0 | 0 | 0 | 20 | 10 | 10 | 10 |  | 
CSc1c(C(F)(F)C(=O)O)ccc(Br)c1Cl [Compound 1-359, 2-(4-Bromo-3-chloro-2-methylsulfanyl-phenyl)-2,2-difluoro-acetic acid] | 0 | 10 | 0 | 0 | 10 | 0 | 20 | 10 | 10 | 10 |  | 
O=C(O)C(F)(F)c1cccc2cccnc12 [Compound 1-403, 2,2-Difluoro-2-(quinoline-8-yl)acetic acid] | 80 | 80 | 90 | 70 | 30 | 80 | 20 | 80 | 90 | 70 |  | 
CCOC(=O)C(F)(F)c1c(Cl)cccc1[N+](=O)[O-] [Compound 3-67, Ethyl 2-(2-chloro-6-nitrophenyl)-2,2-difluoroacetate] | 0 | 10 | 20 | 10 | 0 | 0 | 20 | 10 | 50 | 50 |  | 
Nc1c(Cl)cc(Cl)cc1C(F)(F)C(=O)O [Compound 7-253, Ammonium 2-(2-amino-3,5-dichloro-phenyl)-2,2-difluoro-acetate] | 0 | 0 | 0 |  |  | 60 | 10 | 40 | 60 | 70 | 0 | 0
